The target in assay [1] is Human TDO (hTDO)-transfected CHO-K1 cells (Homo sapiens (Human), UniProt P48775). In words: CHO-K1 cell based TDO assay. The settings on record: hTDO cellular assay. The method, then: Human TDO (hTDO)-transfected CHO-K1 cells were used to identify test compounds that inhibit TDO activity and reduce Kynurenine production. CHO-K1 cells (ATCC) were cultured in DMEM supplemented with sodium bicarbonate (2.1 g/L), HEPES (4.1 g/L), L-glutamine (2 mM), non-essential amino acid (84 mg/L) and fetal bovine serum (10%) and maintained at 95% humidity and 5% CO2 in a 37° C. incubator. The TDO gene (TDO2) (Accession number NM_005651.1) was purchased from Origene (USA) and stably expressed in CHO-Kl cells using the expression vector pcDNA4/Myc-HisB Hygro (Life Technologies, USA). TDO-expressing clones were identified based on the kynurenine production by the cells. Expanded clones were used for assay as described below. Unless otherwise stated, all materials were procured from Sigma.
Human TDO (hTDO)-transfected CHO-K1 cells, sequence (P48775 whole entry): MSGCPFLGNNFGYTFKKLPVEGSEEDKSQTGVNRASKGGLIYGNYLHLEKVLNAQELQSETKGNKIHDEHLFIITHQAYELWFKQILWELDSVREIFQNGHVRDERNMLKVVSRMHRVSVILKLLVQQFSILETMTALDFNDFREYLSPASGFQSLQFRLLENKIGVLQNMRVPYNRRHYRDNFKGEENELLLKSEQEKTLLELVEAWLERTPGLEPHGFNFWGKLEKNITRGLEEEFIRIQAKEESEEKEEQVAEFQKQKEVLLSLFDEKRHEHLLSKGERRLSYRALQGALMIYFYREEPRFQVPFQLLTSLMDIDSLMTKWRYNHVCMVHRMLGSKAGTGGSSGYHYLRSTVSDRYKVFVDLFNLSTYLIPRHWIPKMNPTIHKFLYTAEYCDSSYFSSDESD
hTDO transfected CHO-K1 cells (0.05 million/well) were seeded in a 96-well plate and maintained overnight in DMEM containing 10% FBS (200 μL) at 95% humidity and 5% CO2 in a 37° C. incubator. The following day, cells were washed and incubated with test compounds (typically 31 μM to 10 nM, final volume 150 μL) in Hanks Balanced Salt Solution (HBSS) containing 80 μM L-tryptophan for 2 hours. Supernatant (150 μL) from the cells was treated with 30% TCA ([…]) to precipitate proteins. Supernatants were further incubated at 65° C. for 15 min to convert N-formylkynurenine to kynurenine. KYN in the supernatant was measured by LC/MS/MS using an API4000 mass spectrometer (Applied Biosystems) coupled to a Shimadzu Prominence LC system fitted with a C18 column.
Percent inhibition of the test compounds was determined by measuring the decrease in KYN as compared to the reaction control (DMSO vehicle). IC50 values were calculated using Graph Pad Prism® 5 as described above.

Assay [2] deals with Human indoleamine 2,3-dioxygenase1 (hIDO1) (Homo sapiens (Human), UniProt P14902). The assay can be described thus: In-vitro IDO1 enzyme assay (conversion of L-tryptophan to KYN). Format: biochemical. The settings on record: read-out: IC50 (IDO1) Enz. The text has this: Human indoleamine 2,3-dioxygenasel (hIDO1) catalyzes the oxidative cleavage of the pyrrole ring of the indole nucleus of tryptophan to yield N-formylkynurenine which can be converted to kynurenine (KYN) by deformylation. hIDO1 with an N-terminal His tag, expressed and purified from E. coli cells was procured from either Enzo LifeScienccs, NY, USA). Unless otherwise stated, all materials were procured from Sigma Aldrich, Mo., USA.
Human indoleamine 2,3-dioxygenase1 (hIDO1), sequence (P14902 whole entry): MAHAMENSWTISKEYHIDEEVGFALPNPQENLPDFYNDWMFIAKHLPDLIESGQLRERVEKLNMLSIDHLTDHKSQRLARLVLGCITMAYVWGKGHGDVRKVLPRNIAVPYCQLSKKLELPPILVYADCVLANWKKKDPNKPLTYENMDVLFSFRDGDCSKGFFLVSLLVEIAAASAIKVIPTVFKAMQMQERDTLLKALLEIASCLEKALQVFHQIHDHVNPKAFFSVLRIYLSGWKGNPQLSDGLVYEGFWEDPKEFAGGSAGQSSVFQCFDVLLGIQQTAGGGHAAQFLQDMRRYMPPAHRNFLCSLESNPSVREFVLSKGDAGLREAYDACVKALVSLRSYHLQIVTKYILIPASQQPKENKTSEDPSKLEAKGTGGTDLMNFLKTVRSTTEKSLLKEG
The assay monitoring the conversion of L-tryptophan to KYN was carried out as follows. hIDO1 (10 nM) was incubated with tryptophan (30 μM) in the presence of ascorbic acid (20 mM), methylene blue (10 μM) and catalase (100 μg/mL) in potassium phosphate buffer (50 mM; pH 6.5) at 37C for 30 min. The reaction was terminated with 30% trichloroacetic acid (TCA) and further incubated at 65C for 15 min to fully convert N-formylkynurenine to KYN. The reaction mixture was then centrifuged to remove sediments and the KYN in the supernatant was estimated by UV-visible absorption spectroscopy at 360 nm using a Waters HPLC system fitted with a C-18 column or by LC/MS/MS. See, Sono, 1980, J. Biol. Chem., 255:1339-1345, which is herein incorporated by reference.
Percent inhibition at each concentration of test compounds was determined by estimating the decrease in KYN with reference to the reaction control with 1% DMSO vehicle. Data were analyzed using nonlinear regression to generate IC50 values using Graph Pad Prism® 5.

Structures can show the parent of a compound that is named as a salt.

For orientation: IC50 means the point on the concentration scale where inhibition reaches its midpoint. In the case of `Nc1oc2cncc(Cl)c2c1Nc1ccc(F)c(Cl)c1` [Compound 57, 4-Chloro-N^3-(3-chloro-4-fluoro-phenyl)-furo[2,3-c]pyridine-2,3-diamine], the values for the IC50 in assay [1] and in assay [2] were 500 to 2000 nM and more than 1000 nM, respectively.
For `CC(C)(C)c1cccc(Nc2c(N)oc3cnccc23)c1` [Compound 61, N^3-(3-(tert-Butyl)phenyl)furo[2,3-c]pyridine-2,3-diamine], in that order: more than 2000 nM and more than 1000 nM.
For `Nc1oc2cnccc2c1Nc1cccc2c1CCCC2` [Compound 63, N^3-(5,6,7,8-Tetrahydronaphthalen-1-yl)furo[2,3-c]pyridine-2,3-diamine], in that order: more than 2000 nM and more than 1000 nM.
Consider `Nc1oc2cnccc2c1Nc1cccc(Cc2ccccc2)c1` [Compound 75, N^3-(3-Benzylphenyl)furo[2,3-c]pyridine-2,3-diamine], for which the IC50 in assay [1] is more than 2000 nM; in assay [2], more than 1000 nM.
Regarding `Nc1oc2cnccc2c1Nc1cccc(C2CCCCC2)c1` [Compound 88, N^3-(3-Cyclohexylphenyl)furo[2,3-c]pyridine-2,3-diamine], the IC50 in assay [1] was 500 to 2000 nM; in assay [2], more than 1000 nM.
For the compound `Nc1oc2cnccc2c1Nc1cccc(CC2CCC2)c1` [Compound 89, N^3-(3-(Cyclobutylmethyl)phenyl)furo[2,3-c]pyridine-2,3-diamine], the half-inhibitory concentration (IC50) in assay [1] is more than 2000 nM; in assay [2], more than 1000 nM.
For `CC(C)Oc1cc2c(Nc3ccc(F)c(Cl)c3)c(N)oc2c(-c2ccccc2)n1` [Compound 107, N^3-(3-Chloro-4-fluorophenyl)-5-isopropoxy-7-phenylfuro[2,3-c]pyridine-2,3-diamine], in that order: more than 2000 nM and more than 1000 nM.
Take `Nc1sc2cnccc2c1Nc1ccc(F)c(Cl)c1` [Compound 121, N^3-(3-chloro-4-fluorophenyl)thieno[2,3-c]pyridine-2,3-diamine]: the IC50 in assay [1] was more than 2000 nM; in assay [2], more than 1000 nM.
For `Nc1sc2ccccc2c1Sc1cccc(Cl)c1` [Compound 122, 3-((3-Chlorophenyl)thio)benzo[b]thiophen-2-amine], in that order: more than 2000 nM and more than 1000 nM.
Take `Nc1sc2ccccc2c1Oc1cccc(Cl)c1` [Compound 127, 3-(3-Chlorophenoxy)benzo[b]thiophen-2-amine hydrochloride]: the figures for the 50% inhibitory concentration (IC50) in assay [1] and in assay [2] were more than 2000 nM and more than 1000 nM, respectively.
On to `Nc1sc2ccccc2c1Nc1ccc(F)c(C(F)(F)F)c1` [Compound 128, N^3-(4-Fluoro-3-(trifluoromethyl)phenyl)benzo[b]thiophene-2,3-diamine], for which the figures for the IC50 in assay [1] and in assay [2] were more than 2000 nM and less than 200 nM, respectively.
For `[NH]c1sc2ccc(Cl)cc2c1Nc1ccc(F)c(C(F)(F)F)c1` [Compound 129, hydrochloride], the half-maximal inhibitory concentration (IC50) was more than 2000 nM in assay [1] and 200 to 1000 nM in assay [2].
On to `CN(c1ccccc1)c1c(N)sc2ccccc12` [Compound 135, N^3-Methyl-N^3-phenylbenzo[b]thiophene-2,3-diamine hydrochloride], for which the IC50 in assay [1] is more than 2000 nM; in assay [2], more than 1000 nM.
`N#Cc1ccc2c(Nc3ccc(F)c(Cl)c3)c(N)sc2c1` [Compound 136, 2-Amino-3-((3-chloro-4-fluorophenyl)amino)benzo[b]thiophene-6-carbonitrile]: the figures for the IC50 in assay [1] and in assay [2] were more than 2000 nM and more than 1000 nM, respectively.
For `CCOC(=O)Nc1oc2cnccc2c1N(C(=O)OCC)c1ccc(F)c(Cl)c1` [Compound 142, Ethyl (3-chloro-4-fluorophenyl)(2-((ethoxycarbonyl)amino)furo-[2,3-c]pyridin-3-yl)carbamate], the figures for the IC50 in assay [1] and in assay [2] were more than 2000 nM and more than 1000 nM, respectively.
Consider `COC(=O)Nc1oc2cnccc2c1Nc1ccc(F)c(Cl)c1` [Compound 143, Methyl (3-((3-chloro-4-fluorophenyl)amino)furo[2,3-c]pyridin-2-yl)carbamate], for which the IC50 was more than 2000 nM in assay [1] and more than 1000 nM in assay [2].
In the case of `COC(=O)Nc1oc2cnccc2c1N(C(=O)OC)c1ccc(F)c(Cl)c1` [Compound 144, Methyl (3-chloro-4-fluorophenyl)(2-((methoxycarbonyl)amino)furo[2,3-c]pyridin-3-yl)carbamate], the results for the IC50 in assay [1] and in assay [2] were more than 2000 nM and more than 1000 nM, respectively.
Regarding `CCOC(=O)Nc1oc2c(C#N)nccc2c1N(C(=O)OCC)c1ccc(F)c(Cl)c1` [Compound 145, Ethyl (3-chloro-4-fluorophenyl)(7-cyano-2-((ethoxycarbonyl)amino)furo[2,3-c]pyridin-3-yl)carbamate], the figures for the IC50 in assay [1] and in assay [2] were more than 2000 nM and more than 1000 nM, respectively.
Take `CCOC(=O)Nc1oc2c(-c3cccc(C#N)c3)nccc2c1N(C(=O)OCC)c1ccc(F)c(Cl)c1` [Compound 146, Ethyl (3-chloro-4-fluorophenyl)(7-(3-cyanophenyl)-2-((ethoxycarbonyl)amino)furo[2,3-c]pyridin-3-yl)carbamate]: the IC50 in assay [1] is more than 2000 nM; in assay [2] it was more than 1000 nM.
For the compound `N#Cc1nccc2c(Nc3ccc(F)c(Cl)c3)c(NC(=O)OCc3ccccc3)oc12` [Compound 155, Benzyl (3-((3-chloro-4-fluorophenyl)amino)-7-cyanofuro[2,3-c]pyridin-2-yl)carbamate], the results for the IC50 in assay [1] and in assay [2] were 500 to 2000 nM and more than 1000 nM, respectively.
For `CCOC(=O)Nc1oc2c(I)nccc2c1N(C(=O)OCC)c1ccc(F)c(Cl)c1` [Compound 156, Ethyl (3-chloro-4-fluorophenyl)(2-((ethoxycarbonyl)amino)-7-iodofuro[2,3-c]pyridin-3-yl)carbamate], in that order: more than 2000 nM and more than 1000 nM.
Turning to `CCOC(=O)Nc1oc2c(-c3ccc(C(N)=O)cc3)nccc2c1Nc1ccc(F)c(Cl)c1` [Compound 157, Ethyl (7-(4-carbamoylphenyl)-3-((3-chloro-4-fluorophenyl)amino)furo[2,3-c]pyridin-2-yl)carbamate], the IC50 in assay [1] is more than 2000 nM; in assay [2], more than 1000 nM.
Take `CCOC(=O)Nc1oc2c(C#Cc3ccc(C(N)=O)cc3)nccc2c1N(C(=O)OCC)c1ccc(F)c(Cl)c1` [Compound 160, Ethyl (7-((4-carbamoylphenyl)ethynyl)-2-((ethoxycarbonyl)amino)furo[2,3-c]pyridin-3-yl)(3-chloro-4-fluorophenyl)carbamate]: the IC50 in assay [1] was more than 2000 nM; in assay [2], more than 1000 nM.
Regarding `CCOC(=O)Nc1oc2c(Br)nccc2c1N(C(=O)OCC)c1ccc(F)c(Cl)c1` [Compound 161, Ethyl (7-bromo-2-((ethoxycarbonyl)amino)furo[2,3-c]pyridin-3-yl)(3-chloro-4-fluorophenyl)carbamate], the IC50 in assay [1] is more than 2000 nM; in assay [2] it was more than 1000 nM.
For the compound `CCOC(=O)Nc1oc2c(-c3ccccc3)nccc2c1Nc1ccc(F)c(Cl)c1` [Compound 162, Ethyl (3-((3-chloro-4-fluorophenyl)amino)-7-phenylfuro[2,3-c]pyridin-2-yl)carbamate], the figures for the IC50 in assay [1] and in assay [2] were more than 2000 nM and more than 1000 nM, respectively.
Regarding `CCOC(=O)Nc1oc2c(-c3cc(C)nc(C)c3)nccc2c1Nc1ccc(F)c(Cl)c1` [Compound 163, Ethyl (3-((3-chloro-4-fluorophenyl)amino)-7-(2,6-dimethylpyridin-4-yl)furo[2,3-c]pyridin-2-yl)carbamate], the results for the IC50 in assay [1] and in assay [2] were more than 2000 nM and more than 1000 nM, respectively.
In the case of `CCOC(=O)Nc1oc2c(-c3cc(C)nc(C)c3)nccc2c1N(C(=O)OCC)c1ccc(F)c(Cl)c1` [Compound 165, Ethyl (3-chloro-4-fluorophenyl)(7-(2,6-dimethylpyridin-4-yl)-2-((ethoxycarbonyl)amino)furo[2,3-c]pyridin-3-yl)carbamate], the IC50 was more than 2000 nM in assay [1] and more than 1000 nM in assay [2].
